Source: ChEMBL document CHEMBL4376882, “Photodynamic Therapy for ras-Driven Cancers: Targeting G-Quadruplex RNA Structures with Bifunctional Alkyl-Modified Porphyrins” (J Med Chem, 2020)
pEC50, pKd: −log10 of the molar value. Activity calls are given as the source filed them. No cut-off for these calls is given here.

Assays:
[1] = test system: PANC-1; assay: Induction of apoptosis in human PANC1 cells assessed as cleavage of caspase 7 when photoirradiated at 7.2 J/cm2 by Western blot analysis; type: functional, cell-based
[2] = test system: PANC-1; assay: Induction of apoptosis in human PANC1 cells assessed as late apoptotic cells at 5 nM and photoirradiated at 7.2 J/cm2 measured after 6 to 24 hrs in presence of NAC by annexin-V-propidium iodide staining based FACScalibur flow cytometry analysis (reference value: 1.3 %); type: functional
[3] = target: GTPase NRas (Homo sapiens) (UniProt P01111); assay: Inhibition of NRAS in human PANC1 cells assessed as decrease in NRAS mRNA level at 15 nM followed by 7.2 J/cm2 irradiation after 4 hrs by qRT-PCR analysis; type: cell-based
Chain of GTPase NRas (Homo sapiens) (P01111 whole entry): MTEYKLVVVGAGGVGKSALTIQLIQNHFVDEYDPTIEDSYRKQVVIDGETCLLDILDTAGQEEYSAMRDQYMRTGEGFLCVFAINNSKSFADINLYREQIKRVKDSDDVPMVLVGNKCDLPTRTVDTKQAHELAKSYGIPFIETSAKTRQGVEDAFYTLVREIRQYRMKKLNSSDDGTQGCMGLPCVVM

[4] = test system: PANC-1; assay: Induction of apoptosis in human PANC1 cells assessed as necrotic cells at 15 nM and photoirradiated at 7.2 J/cm2 measured after 6 to 24 hrs by annexin-V-propidium iodide staining based FACScalibur flow cytometry analysis (reference value: 0.7 %); type: functional
[5] = test system: PANC-1; assay: Induction of apoptosis in human PANC1 cells assessed as viable cells at 5 nM and photoirradiated at 7.2 J/cm2 measured after 6 to 24 hrs in presence of NAC by annexin-V-propidium iodide staining based FACScalibur flow cytometry analysis (reference value: 94.5 %); type: functional; conditions: PANC-1, light or radiation study, read-out: Activity
[6] = test system: PANC-1; assay: Induction of apoptosis in human PANC1 cells assessed as cleavage of PARP1 when photoirradiated at 7.2 J/cm2 by Western blot analysis; type: functional, cell-based
[7] = target: GTPase KRas (Homo sapiens) (UniProt P01116); assay: Inhibition of KRAS in human PANC1 cells assessed as downregulation of KRAS expression at 15 nM after 4 hrs by Western blot analysis; type: cell-based
Chain of GTPase KRas (Homo sapiens) (P01116 whole entry, looked up): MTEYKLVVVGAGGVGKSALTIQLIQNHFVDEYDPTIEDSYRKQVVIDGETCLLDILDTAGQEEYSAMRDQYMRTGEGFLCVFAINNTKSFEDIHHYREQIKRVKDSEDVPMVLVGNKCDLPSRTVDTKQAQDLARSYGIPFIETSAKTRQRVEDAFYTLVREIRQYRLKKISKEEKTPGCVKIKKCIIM

[8] = test system: PANC-1; assay: Induction of apoptosis in human PANC1 cells assessed as viable cells at 10 nM and photoirradiated at 7.2 J/cm2 measured after 6 to 24 hrs in presence of NAC by annexin-V-propidium iodide staining based FACScalibur flow cytometry analysis (reference value: 94.5 %); type: functional; conditions: PANC-1, light or radiation study, read-out: Activity
[9] = test system: PANC-1; assay: Induction of apoptosis in human PANC1 cells assessed as viable cells at 10 nM and photoirradiated at 7.2 J/cm2 measured after 6 to 24 hrs by annexin-V-propidium iodide staining based FACScalibur flow cytometry analysis (reference value: 91.9 %); type: functional; conditions: PANC-1, light or radiation study, read-out: Activity
[10] = test system: PANC-1; assay: Induction of apoptosis in human PANC1 cells assessed as viable cells at 5 nM and photoirradiated at 7.2 J/cm2 measured after 6 to 24 hrs by annexin-V-propidium iodide staining based FACScalibur flow cytometry analysis (reference value: 91.9 %); type: functional; conditions: PANC-1, light or radiation study, read-out: Activity
[11] = target: GTPase NRas (Homo sapiens) (UniProt P01111); assay: Inhibition of NRAS in human PANC1 cells assessed as downregulation of NRAS expression at 15 nM after 4 hrs by Western blot analysis; type: cell-based
[12] = test system: PANC-1; assay: Induction of apoptosis in human PANC1 cells assessed as cleavage of caspase 3 when photoirradiated at 7.2 J/cm2 by Western blot analysis; type: functional, cell-based
[13] = test system: PANC-1; assay: Induction of apoptosis in human PANC1 cells assessed as late apoptotic cells at 5 nM and photoirradiated at 7.2 J/cm2 measured after 6 to 24 hrs by annexin-V-propidium iodide staining based FACScalibur flow cytometry analysis (reference value: 2.7 %); type: functional
[14] = test system: PANC-1; assay: Induction of apoptosis in human PANC1 cells assessed as necrotic cells at 5 nM and photoirradiated at 7.2 J/cm2 measured after 6 to 24 hrs in presence of NAC by annexin-V-propidium iodide staining based FACScalibur flow cytometry analysis (reference value: 1 %); type: functional
[15] = Drug uptake in human PANC1 cells at 5 uM after 16 hrs by FACS analysis; type: ADME, cell-based; conditions: panc-1, 16 h
[16] = Aggregation property of compound at > 40 degree C; type: physicochemical
[17] = target: Quadruplex DNA; assay: Binding affinity to human KRAS utr-z RNA g-quadruplex by fluorescence spectroscopy; type: nucleic-acid assay
[18] = Drug uptake in human HEK293 cells at 5 uM and 4 degree C after 16 hrs by FACS analysis relative to 37 degree C; type: ADME, cell-based; conditions: hek293, 16 h
[19] = test system: HEK293; assay: Cytotoxicity against human HEK293 cells assessed as reduction in metabolic activity after 24 to 72 hrs in dark followed by photoirradiation in presence of NADH by resazurin assay; type: ADME, cell-based
[20] = test system: Quadruplex DNA; assay: Induction of ROS-mediated […] labeled Ras RNA g-quadruplex (unknown origin) degradation at 0.6 uM incubated for 30 mins in presence of NAC followed by photoirradiation for 15 to 30 mins by PAGE analysis; type: nucleic-acid assay
[21] = Drug uptake in human PANC1 cells at 5 uM after 2 hrs by FACS analysis; type: ADME, cell-based; conditions: panc-1, 2 h
[22] = test system: PANC-1; assay: Cytotoxicity against human PANC1 cells assessed as reduction in metabolic activity after 48 hrs in dark followed by photoirradiation in presence of NADH by resazurin assay; type: functional, cell-based; conditions: PANC-1, light or radiation study
[23] = test system: PANC-1; assay: Induction of apoptosis in human PANC1 cells assessed as necrotic cells at 15 nM and photoirradiated at 7.2 J/cm2 measured after 6 to 24 hrs in presence of NAC by annexin-V-propidium iodide staining based FACScalibur flow cytometry analysis (reference value: 1 %); type: functional
[24] = test system: MIA PaCa-2; assay: Cytotoxicity against human MIAPaCa2 cells harboring G12C point mutation assessed as reduction in metabolic activity after 48 hrs in dark followed by photoirradiation in presence of NADH by resazurin assay; type: functional, cell-based
[25] = Toxicity in SCID mouse xenografted with human PANC1 cells assessed as tissue damage around the irradiated tumor at 3 mg/kg administered intratumorally after 2 hrs photoirradiated by diode laser at 193 J/cm2; type: organism-based; conditions: in vivo, other
[26] = test system: Quadruplex DNA; assay: Binding affinity to human KRAS utr-z RNA g-quadruplex assessed as compound-RNA complex stoichiometry ratio of 6:1 by Job's plot analysis; type: nucleic-acid assay
[27] = test system: PANC-1; assay: Induction of apoptosis in human PANC1 cells assessed as late apoptotic cells at 10 nM and photoirradiated at 7.2 J/cm2 measured after 6 to 24 hrs in presence of NAC by annexin-V-propidium iodide staining based FACScalibur flow cytometry analysis (reference value: 1.3 %); type: functional
[28] = test system: Quadruplex DNA; assay: Binding affinity to human KRAS utr-z RNA g-quadruplex assessed as emission spectra at absorbance 650 to 715 nm 1 uM by fluorescence titration method; type: nucleic-acid assay
[29] = test system: PANC-1; assay: Induction of apoptosis in human PANC1 cells assessed as early apoptotic cells at 5 nM and photoirradiated at 7.2 J/cm2 measured after 6 to 24 hrs in presence of NAC by annexin-V-propidium iodide staining based FACScalibur flow cytometry analysis (reference value: 3.1 %); type: functional
[30] = Induction of ROS-mediated Cys5.5 labelled utr-z RNA duplex (unknown origin) degradation at 0.6 uM incubated for 30 mins followed by photoirradiation for 15 to 30 mins by PAGE analysis
[31] = test system: PANC-1; assay: Induction of apoptosis in human PANC1 cells assessed as late apoptotic cells at 15 nM and photoirradiated at 7.2 J/cm2 measured after 6 to 24 hrs in presence of NAC by annexin-V-propidium iodide staining based FACScalibur flow cytometry analysis (reference value: 1.3 %); type: functional

## CCCCCCCCCCCCCC[n+]1ccc(-c2c3nc(c(-c4cc[n+](C)cc4)c4ccc([nH]4)c(-c4cc[n+](C)cc4)c4nc(c(-c5cc[n+](C)cc5)c5ccc2[nH]5)C=C4)C=C3)cc1.[I-].[I-].[I-].[I-]
[1]
  Activity: Active
[2]
  Activity: 1.1%
[3]
  inhibition: Active
[4]
  Activity: 4.1%
[5]
  viability at 0.005 µM: 95.2%
[6]
  Activity: Active
[7]
  inhibition: inactive
[8]
  viability at 0.01 µM: 90.9%
[9]
  viability at 0.01 µM: 82.1%
[10]
  viability at 0.005 µM: 88.2%
[11]
  inhibition: inactive
[12]
  Activity: Active
[13]
  Activity: 6.1%
[14]
  Activity: 1.2%
[15]
  Drug uptake: Active
[16]
  Activity: Active
[17]
  pKd: 6.66
[18]
  Drug uptake: Active
[19]
  Activity: Non-Toxic
[20]
  Activity: inactive
[21]
  Drug uptake: Active
[22]
  pEC50: 7.86
[23]
  Activity: 1.7%
[24]
  Activity: Active
[25]
  Activity: Non-Toxic
[26]
  Activity: Active
[27]
  Activity: 3.1%
[28]
  Activity: Active
[29]
  Activity: 2.4%
[30]
  Activity: inactive
[31]
  Activity: 5%
